Measurements as given in patent EP0830136B1, “NEW CRY[…] […]” (priority 1995, dated 1996).
Entries after “also recorded” stand apart in the source; their conditions may differ. Read-outs that look alike come from different tables or passages of the source.

What was measured:
KB = assay: In vitro cytotoxicity, KB cell line; type: cell-based, human; conditions: read-out: RB IC50
LoVo = assay: In vitro cytotoxicity, LoVo cell line; type: cell-based, human
tumors implanted in mice = conditions: for in vivo antitumor activity: statement in words; for T/C values / gross log kill values: summary over trials, partly worded 'mostly'
[1] = test system: human tumor cell lines KB and LoVo; assay: In vitro cytotoxicity, KB and LoVo; conditions: read-out: cytotoxicities IC50's
Mam 16/C = conditions: SC Tumor Mam 16/C
Colon 51 = conditions: SC Tumor Colon 51
SKVLB1 cells = assay: cells; type: cell-based; conditions: Homo sapiens, SKVLB1, 48 h, read-out: SKVLB1 IC50 (nM)
Description: The Jurkat T cell leukemia line and A-10 rat aortic smooth muscle cells were obtained from the American Type Culture Collection and were cultured in BME containing 10% FBS and 50µg/mL gentamycin sulfate. […] Both cell lines were maintained in BME containing 10% FBS and 50µg/mL gentamycin sulfate.
Cell proliferation assays were performed as described by Skehan et al.^11 For Jurkat cells, cultures were treated with the indicated drugs as described in Skehan^11 and total cell numbers were determined by counting the cells in a hemacytometer. The percentage of cells in mitosis was determined by staining with 0.4% Giemsa in PBS followed by three rapid washes with PBS. At least 1000 cells per treatment were scored for the presence of mitotic figures and the mitotic index was calculated as the ratio of cells with mitotic figures to the total number of cells counted.

SKOV3 cells = assay: Cell proliferation assay (SRB staining), SKOV3; type: cell-based, Human; conditions: 24 hours with IC50 doses
[2] = test system: A-10 rat aortic smooth muscle cells; assay: Immunofluorescence of cytoskeleton in A-10 cells; type: cell-based; conditions: A-10 cells
Description: A-10 cells were grown to near-confluency on glass coverslips in BME/10% FBS. Compounds in PBS were added to the indicated final concentrations and cells were incubated for an additional 24 hours. For the staining of microtubules and intermediate filaments, the cells were fixed with cold methanol and incubated with PBS containing 10% calf serum to block nonspecific binding sites. Cells were then incubated at 37°C for 60 min with either monoclonal anti-β-tubulin or with monoclonal anti-vimentin at dilutions recommended by the manufacturer. Bound primary antibodies were subsequently visualized by a 45-minute incubation with fluorescein-conjugated rabbit antimouse IgG. The coverslips were mounted on microscope slides and the fluorescence patterns were examined and photographed using a Zeiss Photomicroscope ill equipped with epifluorescence optics for fluorescein. […] PBS containing 100nM TRITC-phalloidin was then added and the mixture was allowed to incubate for 45 min at 37° C. The cells were washed rapidly three times with PBS before the coverslips were mounted and immediately photographed as described above.

H125 Human Adenosq-lung = conditions: Exp # 1823; SC Tumor H125 Human Adenosq-lung; 8 Inj. IV; 14.4 mg/kg Total Dose
Description: (§1) Gross log kill is defined as T-C/3.2 Td where T is the median time in days for the tumors of the treated group to reach 750mg, C is the median time in days for the tumors of the control group to reach 750mg, and Td is the tumor volume doubling time (T.H. Corbett et al., Cytotoxic Anticancer Drugs: Models and Concepts for Drug Discovery and Development, pp 35-87; Kluwer: Norwell, 1992).

M17/0 (Adr. Sens.) = conditions: Exp # 1833; SC Tumor M17/0 (Adr. Sens.); 5 Inj. IV; 5.4 mg/kg Total Dose
Description: as §1

Mam 16/Taxol = conditions: Exp # 1733; SC Tumor Mam 16/Taxol; 5 Inj. IV; 16.5 mg/kg Total Dose
Description: as §1

physchem = conditions: aqueous base, pH 11
[3] = Methanolysis (solvolysis) of the C-D ester bond; type: physicochemical; conditions: methanol used in the isolation scheme
LNCaP Human Prostate = conditions: Exp # 1841; SC Tumor LNCaP Human Prostate; 6 Inj. IV; 6.5 mg/kg Total Dose
Description: as §1

[4] = test system: Human Sm Cell L. DMS273 SCID; conditions: Exp # 1596; SC Tumor Human Sm Cell L. DMS273 SCID; 6 Inj. IV; 7.3 mg/kg Total Dose
Description: as §1

MX-1 Human Breast = conditions: Exp # 1806; SC Tumor MX-1 Human Breast; 8 Inj. IV; 12 mg/kg Total Dose
Description: as §1

Colon 26 = assay: In vivo activity, Colon 26 experiment; set-up: species or system mice
Description: as §1

[5] = Exp # 1843, SC Tumor P03, 4 Inj. IV, 28/5 mg/kg TD
[6] = Exp # 1885, 7 Inj. IV, 21.3 mg/kg TD
[7] = Exp # 1887 B, SC Tumor C38, 6 Inj. IV, 30 mg/kg TD
[8] = Exp # 1900, 9 Inj. IV, 67.5 mg/kg TD
[9] = Exp # 1825, SC Tumor P03, 11 Inj. IV, 106 mg/kg TD
[10] = Exp # 1878, SC Tumor P03, 9 Inj. IV, 82 mg/kg TD
[11] = Exp # 1720, 5 Inj. IV, 13.2 mg/kg Total Dose
[12] = Exp # 1560, SC Tumor Colon 38, 8 Inj. IV, 10.3 mg/kg Total Dose
[13] = Exp # 1636, 7 Inj. IV, 28.1 mg/kg Total Dose
[14] = Exp # 1843, SC Tumor P03, 7 Inj. IV, 23 mg/kg TD
[15] = Exp # 1813, SC Tumor P03, 9 Inj. IV, 27 mg/kg TD
[16] = 24 hours, 2µM cytochalasin B, 100nM vinblastine or 10nM cryptophycin compounds

SMILES: COc1ccc(C[C@H]2NC(=O)/C=C/C[C@@H]([C@H](C)/C=C/c3ccccc3)OC(=O)[C@H](CC(C)C)OC(=O)[C@H](C)CNC2=O)cc1Cl [Cryptophycin 3]
- IC50 (KB): 3.1 to 4.6 nM
- IC50 (LoVo): 1.9 to 5.8 nM
- in vivo antitumor activity (tumors implanted in mice): antitumor activity is greatly diminished
- IC50 [1]: 3.5 to 5.8 nM
- % Body Wt. Loss at Nadir (Panc 03; [5]): -9%
- Cures (Panc 03; [5]): 0/5
- Log Kill (Panc 03; [5]): <1
- T/C (Panc 03; [5]): 54%

SMILES: COc1ccc(C[C@H]2NC(=O)/C=C/C[C@@H]([C@H](C)[C@@H](O)[C@@H](Cl)c3ccccc3)OC(=O)[C@H](CC(C)C)OC(=O)[C@H](C)CNC2=O)cc1Cl [Cryptophycin 8]
- IC50 (KB): 0.019 nM
- IC50 (LoVo): 0.0091 nM
- T/C values (tumors implanted in mice): 0%
- gross log kill values (tumors implanted in mice): > 2.8
- IC50 [1]: 0.009 to 0.019 nM
- % Body Wt. Loss at Nadir (Mam 16/C; [6]): -4.5%
- Cures (Mam 16/C; [6]): 0/5
- Log Kill (Mam 16/C; [6]): 2.5
- T/C (Mam 16/C; [6]): 6%
- % Body Wt. Loss at Nadir (Colon 38; [7]): -2%
- Cures (Colon 38; [7]): 1/5
- Log Kill (Colon 38; [7]): 2.8
- T/C (Colon 38; [7]): 0%
- % Body Wt. Loss at Nadir (Colon 51; [8]): -1%
- Cures (Colon 51; [8]): 0/5
- Log Kill (Colon 51; [8]): 1.8
- T/C (Colon 51; [8]): 7%
- % Body Wt. Loss at Nadir (Panc 03; [9]): -6%
- Cures (Panc 03; [9]): 0/5
- T/C (Panc 03; [9]): 4%
- Log Kill (Panc 03; mouse, in vivo, 106 mg/kg): 4.6

SMILES: COc1ccc(C[C@H]2NC(=O)/C=C/C[C@@H]([C@H](C)[C@@H](O)[C@@H](O)c3ccccc3)OC(=O)[C@H](CC(C)C)OC(=O)[C@H](C)CNC2=O)cc1Cl [Cryptophycin 15]
- in vivo antitumor activity (tumors implanted in mice): antitumor activity is greatly diminished

SMILES: CC(=O)O[C@H]1C(=O)[C@@]2(C)[C@H]([C@H](OC(=O)c3ccccc3)[C@]3(O)C[C@H](OC(=O)[C@H](O)[C@@H](NC(=O)c4ccccc4)c4ccccc4)C(C)=C1C3(C)C)[C@]1(OC(C)=O)CO[C@@H]1C[C@@H]2O [taxol]
- IC50 (SKVLB1 cells): 8000 nM
- increase in cell number during treatment (SKOV3 cells): 25%
- microtubule organization in taxol-treated cells ([2]; 10µM taxol): extensively bundled

SMILES: CC(C)C[C@@H]1OC(=O)[C@H](C)CNC(=O)[C@@H](Cc2ccc(O)c(Cl)c2)NC(=O)/C=C/C[C@@H]([C@H](C)[C@H]2O[C@@H]2c2ccccc2)OC1=O [Cryptophycin 16]
- % Body Wt. Loss at Nadir (Panc 03; [10]): -1%
- Cures (Panc 03; [10]): 0/5
- Log Kill (Panc 03; [10]): None
- T/C (Panc 03; [10]): 89%

SMILES: COc1ccc(C[C@H]2NC(=O)/C=C/C[C@@H]([C@H](C)[C@H]3O[C@@H]3c3ccccc3)OC(=O)[C@H](CC(C)C)OC(=O)[C@H](C)CNC2=O)cc1Cl [Cryptophycin 1]
- IC50 (KB): 0.0092 nM
- IC50 (LoVo): 0.0104 nM
- toxicity in animals (tumors implanted in mice; compared with Cryptophycin 8): appreciable toxicity
- T/C values (tumors implanted in mice): > 0%
- gross log kill values (tumors implanted in mice): < 2.0
- IC50 [1]: 0.009 to 0.029 nM
- % Body Wt. Loss at Nadir (Mam 16/C; [11]): -1%
- Cures (Mam 16/C; [11]): 0/5
- Log Kill (Mam 16/C; [11]): 1.4
- T/C (Mam 16/C; [11]): 5%
- % Body Wt. Loss at Nadir (Colon 38; [12]): Gain
- Cures (Colon 38; [12]): 0/5
- Log Kill (Colon 38; [12]): 1.5
- T/C (Colon 38; [12]): 6%
- % Body Wt. Loss at Nadir (H125 Human Adenosq-lung): -15%
- Cures (H125 Human Adenosq-lung): 0/5
- Log Kill (H125 Human Adenosq-lung): 1.1
- T/C (H125 Human Adenosq-lung): 9%
- dead (H125 Human Adenosq-lung): 1/5
- % Body Wt. Loss at Nadir (M17/0 (Adr. Sens.)): -10%
- Cures (M17/0 (Adr. Sens.)): 0/5
- Log Kill (M17/0 (Adr. Sens.)): <1
- T/C (M17/0 (Adr. Sens.)): 23%
- % Body Wt. Loss at Nadir (Colon 51; [13]): -11%
- Cures (Colon 51; [13]): 0/5
- Log Kill (Colon 51; [13]): 1.3
- T/C (Colon 51; [13]): 7%
- % Body Wt. Loss at Nadir (Mam 16/Taxol): 0%
- Cures (Mam 16/Taxol): 0/5
- Log Kill (Mam 16/Taxol): 1.8
- T/C (Mam 16/Taxol): 2%
- half-life (physchem): 49.8 min
- methanolysis of the C-D ester bond [3]: considerable methanolysis
- % Body Wt. Loss at Nadir (LNCaP Human Prostate): -6%
- Cures (LNCaP Human Prostate): 0/5
- Log Kill (LNCaP Human Prostate): <1
- T/C (LNCaP Human Prostate): 26%
- % Body Wt. Loss at Nadir [4]: 0%
- Cures [4]: 0/5
- Log Kill [4]: <1
- T/C [4]: 27%
- % Body Wt. Loss at Nadir (MX-1 Human Breast): -3%
- Cures (MX-1 Human Breast): 0/5
- Log Kill (MX-1 Human Breast): 2.0
- T/C (MX-1 Human Breast): 3%

SMILES: COc1ccc(CC2NC(=O)CCCC(C(C)C3OC3c3ccccc3)OC(=O)C(CC(C)C)OC(=O)C(C)CNC2=O)cc1Cl (stereo not shown) [Cryptophycin 35]
- % Body Wt. Loss at Nadir (Panc 03; [14]): -2%
- Cures (Panc 03; [14]): 0/5
- Log Kill (Panc 03; [14]): 1.3
- T/C (Panc 03; [14]): 11%

SMILES: COc1ccc(C[C@H]2NC(=O)/C=C/C[C@@H]([C@H](C)[C@H]3O[C@@H]3c3ccccc3)OC(=O)[C@H](CC(C)C)OC(=O)CCNC2=O)cc1Cl [Cryptophycin 21]
- in vivo antitumor activity (tumors implanted in mice): inactive
- half-life (physchem): 15 min
- methanolysis of the C-D ester bond [3]: considerable methanolysis; also recorded: much more susceptible to methanolysis than Cryptophycin 1
- % Body Wt. Loss at Nadir (Panc 03; [15]): -11%
- Cures (Panc 03; [15]): 0/5
- Log Kill (Panc 03; [15]): None
- T/C (Panc 03; [15]): 61%
- dead (Panc 03; [15]): 1/5

SMILES: COc1ccc(C[C@H]2NC(=O)/C=C/C[C@@H]([C@H](C)[C@@H](O)[C@@H](Cl)c3ccccc3)OC(=O)[C@H](CC(C)C)OC(=O)C(C)(C)CNC2=O)cc1Cl [Cryptophycin 55]
- total dosage required in vivo relative to comparator (tumors implanted in mice; mouse, in vivo): three times the total dosage compared with Cryptophycin 8
- in vivo antitumor activity (tumors implanted in mice): active in vivo
- IC50 [1]: 0.033 to 0.047 nM
- gross log kill value (Colon 26): 1.2

SMILES: COc1ccc(C[C@H]2NC(=O)/C=C/C[C@@H]([C@H](C)/C=C/c3ccccc3)OC(=O)[C@H](CC(C)C)OC(=O)C(C)(C)CNC2=O)cc1Cl [Cryptophycin 51]
- IC50 [1]: 3.5 to 5.8 nM

SMILES: COc1ccc(C[C@H]2NC(=O)/C=C/C[C@@H]([C@H](C)[C@@H](O)[C@@H](Br)c3ccccc3)OC(=O)[C@H](CC(C)C)OC(=O)[C@H](C)CNC2=O)cc1Cl [Cryptophycin 25]
- T/C and gross log kill values, comparison in words (tumors implanted in mice; mouse, in vivo): comparable with those for Cryptophycin 1

SMILES: C=C1[C@@H](C)[C@H]2[C@H](Cc3ccccc3)NC(=O)[C@]23OC(=O)/C=C/[C@H](O)CCC[C@@H](C)C/C=C/[C@H]3[C@@H]1O [Cytochalasin B, cytochalasin B]
- effect on microfilaments [2, 16]: complete depolymerization of microfilaments
- effect on microtubules [2, 16]: did not affect the distribution of either mierotubules or intermediate filaments
- effect on vimentin intermediate filaments [2, 16]: did not affect the distribution of either mierotubules or intermediate filaments
